Reference: ChEMBL document CHEMBL3991601, “The target landscape of clinical kinase drugs” (Science, 2017)
Activity calls are given as the source filed them.

Legend:
[1] = target: T1, Delta(24)-sterol reductase (Homo sapiens, UniProt Q15392)
T1 sequence (Q15392 whole entry): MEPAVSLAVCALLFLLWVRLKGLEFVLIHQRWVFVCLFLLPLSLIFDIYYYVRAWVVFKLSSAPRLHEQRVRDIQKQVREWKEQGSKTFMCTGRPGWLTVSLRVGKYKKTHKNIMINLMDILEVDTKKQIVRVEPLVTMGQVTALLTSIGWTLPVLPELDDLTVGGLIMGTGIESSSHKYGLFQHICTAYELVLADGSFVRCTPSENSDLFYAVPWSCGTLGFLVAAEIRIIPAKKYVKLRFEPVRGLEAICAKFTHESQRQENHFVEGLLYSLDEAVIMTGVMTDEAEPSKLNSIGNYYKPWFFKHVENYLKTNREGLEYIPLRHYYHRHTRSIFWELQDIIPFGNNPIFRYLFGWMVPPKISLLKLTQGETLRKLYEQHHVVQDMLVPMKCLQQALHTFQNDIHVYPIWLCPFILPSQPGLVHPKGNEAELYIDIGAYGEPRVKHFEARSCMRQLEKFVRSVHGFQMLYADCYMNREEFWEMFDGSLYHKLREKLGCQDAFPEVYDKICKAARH

[2] = target: Tyrosine-protein kinase ABL2 (Homo sapiens, UniProt P42684)
Tyrosine-protein kinase ABL2, sequence (P42684 whole entry): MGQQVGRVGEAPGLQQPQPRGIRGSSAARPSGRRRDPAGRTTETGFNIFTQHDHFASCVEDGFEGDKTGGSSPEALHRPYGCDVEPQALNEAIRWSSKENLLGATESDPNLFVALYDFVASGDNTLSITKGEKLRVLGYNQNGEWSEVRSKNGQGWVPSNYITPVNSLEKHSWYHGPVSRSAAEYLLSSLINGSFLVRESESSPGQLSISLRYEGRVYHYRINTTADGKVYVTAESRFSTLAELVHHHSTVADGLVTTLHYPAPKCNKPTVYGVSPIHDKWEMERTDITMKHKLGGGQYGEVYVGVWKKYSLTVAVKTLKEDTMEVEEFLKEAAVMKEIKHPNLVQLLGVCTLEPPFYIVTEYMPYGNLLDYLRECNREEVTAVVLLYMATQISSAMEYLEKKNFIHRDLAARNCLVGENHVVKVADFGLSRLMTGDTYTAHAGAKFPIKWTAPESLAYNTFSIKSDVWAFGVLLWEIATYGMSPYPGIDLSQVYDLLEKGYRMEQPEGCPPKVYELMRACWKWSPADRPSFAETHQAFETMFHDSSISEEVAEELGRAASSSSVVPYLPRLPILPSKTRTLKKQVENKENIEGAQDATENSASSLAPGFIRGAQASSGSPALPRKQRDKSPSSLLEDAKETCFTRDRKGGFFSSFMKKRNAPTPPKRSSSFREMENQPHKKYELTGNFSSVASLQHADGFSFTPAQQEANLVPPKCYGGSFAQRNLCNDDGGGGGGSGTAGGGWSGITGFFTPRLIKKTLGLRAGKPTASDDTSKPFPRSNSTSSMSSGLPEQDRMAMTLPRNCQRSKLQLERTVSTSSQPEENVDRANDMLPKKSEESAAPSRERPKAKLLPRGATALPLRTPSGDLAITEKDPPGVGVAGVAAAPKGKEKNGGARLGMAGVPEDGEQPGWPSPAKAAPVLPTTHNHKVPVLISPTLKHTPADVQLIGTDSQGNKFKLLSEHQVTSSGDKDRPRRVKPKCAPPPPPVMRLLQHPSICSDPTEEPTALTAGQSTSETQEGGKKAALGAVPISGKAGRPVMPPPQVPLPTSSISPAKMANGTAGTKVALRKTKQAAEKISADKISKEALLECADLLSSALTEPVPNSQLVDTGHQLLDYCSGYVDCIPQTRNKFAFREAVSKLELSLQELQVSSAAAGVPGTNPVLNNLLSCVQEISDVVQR

[3] = target: Protein kinase C delta type (Homo sapiens, UniProt Q05655)
Protein kinase C delta type, sequence (Q05655 whole entry): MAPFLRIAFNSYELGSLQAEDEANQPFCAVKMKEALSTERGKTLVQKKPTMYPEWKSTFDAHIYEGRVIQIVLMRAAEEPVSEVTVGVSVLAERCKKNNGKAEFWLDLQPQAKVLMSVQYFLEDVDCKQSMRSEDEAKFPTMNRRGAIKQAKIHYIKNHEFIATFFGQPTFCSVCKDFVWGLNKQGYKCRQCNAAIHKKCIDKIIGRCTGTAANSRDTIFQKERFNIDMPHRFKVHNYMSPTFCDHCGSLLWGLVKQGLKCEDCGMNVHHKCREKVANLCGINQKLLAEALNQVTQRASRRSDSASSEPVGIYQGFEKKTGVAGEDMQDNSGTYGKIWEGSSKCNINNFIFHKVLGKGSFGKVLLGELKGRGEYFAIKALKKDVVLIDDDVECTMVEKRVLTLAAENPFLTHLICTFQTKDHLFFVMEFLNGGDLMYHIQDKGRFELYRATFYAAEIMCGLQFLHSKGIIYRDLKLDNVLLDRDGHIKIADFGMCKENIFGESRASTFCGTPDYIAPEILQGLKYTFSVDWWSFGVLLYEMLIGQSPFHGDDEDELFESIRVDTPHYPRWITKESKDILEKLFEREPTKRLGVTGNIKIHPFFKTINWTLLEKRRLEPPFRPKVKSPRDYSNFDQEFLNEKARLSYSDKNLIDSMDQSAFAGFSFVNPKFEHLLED

[4] = target: T2, Tyrosine-protein kinase Tec (Homo sapiens, UniProt P42680)
T2 sequence (P42680 whole entry): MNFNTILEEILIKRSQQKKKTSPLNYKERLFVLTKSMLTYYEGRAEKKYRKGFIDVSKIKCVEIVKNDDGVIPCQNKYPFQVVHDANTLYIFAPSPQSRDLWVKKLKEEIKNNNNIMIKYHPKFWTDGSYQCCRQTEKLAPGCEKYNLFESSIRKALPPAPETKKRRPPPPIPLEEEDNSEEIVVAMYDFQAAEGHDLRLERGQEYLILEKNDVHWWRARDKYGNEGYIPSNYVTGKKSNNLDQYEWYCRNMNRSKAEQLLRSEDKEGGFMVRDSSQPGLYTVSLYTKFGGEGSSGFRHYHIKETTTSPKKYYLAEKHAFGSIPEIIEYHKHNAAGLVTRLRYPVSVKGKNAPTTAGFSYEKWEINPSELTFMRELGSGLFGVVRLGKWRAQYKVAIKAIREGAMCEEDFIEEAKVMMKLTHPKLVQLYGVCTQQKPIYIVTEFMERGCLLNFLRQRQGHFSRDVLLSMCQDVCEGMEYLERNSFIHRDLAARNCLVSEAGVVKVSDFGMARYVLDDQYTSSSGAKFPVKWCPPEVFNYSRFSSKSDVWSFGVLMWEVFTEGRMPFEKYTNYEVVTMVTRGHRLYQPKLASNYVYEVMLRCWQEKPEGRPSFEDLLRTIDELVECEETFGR

[5] = target: Casein kinase I isoform gamma-1 (Homo sapiens, UniProt Q9HCP0)
Casein kinase I isoform gamma-1, sequence (Q9HCP0 whole entry, canonical isoform): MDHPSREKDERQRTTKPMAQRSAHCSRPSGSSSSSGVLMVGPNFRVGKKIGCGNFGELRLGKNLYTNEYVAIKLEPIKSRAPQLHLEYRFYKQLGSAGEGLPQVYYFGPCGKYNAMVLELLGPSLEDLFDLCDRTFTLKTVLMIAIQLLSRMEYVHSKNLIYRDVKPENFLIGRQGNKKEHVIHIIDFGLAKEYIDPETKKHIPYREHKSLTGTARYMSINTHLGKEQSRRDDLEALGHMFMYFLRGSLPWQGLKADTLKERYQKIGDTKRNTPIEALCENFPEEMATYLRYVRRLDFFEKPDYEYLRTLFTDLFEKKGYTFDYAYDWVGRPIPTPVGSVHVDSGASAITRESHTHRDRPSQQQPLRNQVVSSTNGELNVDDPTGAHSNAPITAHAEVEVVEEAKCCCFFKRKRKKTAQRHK

Adenosine kinase = Adenosine kinase (Homo sapiens, UniProt P55263)
Adenosine kinase, sequence (P55263 whole entry): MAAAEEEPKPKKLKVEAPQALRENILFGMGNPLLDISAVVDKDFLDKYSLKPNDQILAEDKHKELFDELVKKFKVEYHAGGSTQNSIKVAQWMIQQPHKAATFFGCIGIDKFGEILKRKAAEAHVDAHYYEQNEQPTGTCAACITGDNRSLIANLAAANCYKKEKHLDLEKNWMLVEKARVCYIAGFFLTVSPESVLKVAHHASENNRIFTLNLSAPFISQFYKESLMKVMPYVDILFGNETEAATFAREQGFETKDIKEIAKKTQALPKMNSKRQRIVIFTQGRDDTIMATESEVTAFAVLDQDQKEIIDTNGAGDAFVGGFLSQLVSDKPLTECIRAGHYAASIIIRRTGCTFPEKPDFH

[6] = target: T3, NUAK family SNF1-like kinase 2 (Homo sapiens, UniProt Q9H093)
T3 sequence (Q9H093 whole entry): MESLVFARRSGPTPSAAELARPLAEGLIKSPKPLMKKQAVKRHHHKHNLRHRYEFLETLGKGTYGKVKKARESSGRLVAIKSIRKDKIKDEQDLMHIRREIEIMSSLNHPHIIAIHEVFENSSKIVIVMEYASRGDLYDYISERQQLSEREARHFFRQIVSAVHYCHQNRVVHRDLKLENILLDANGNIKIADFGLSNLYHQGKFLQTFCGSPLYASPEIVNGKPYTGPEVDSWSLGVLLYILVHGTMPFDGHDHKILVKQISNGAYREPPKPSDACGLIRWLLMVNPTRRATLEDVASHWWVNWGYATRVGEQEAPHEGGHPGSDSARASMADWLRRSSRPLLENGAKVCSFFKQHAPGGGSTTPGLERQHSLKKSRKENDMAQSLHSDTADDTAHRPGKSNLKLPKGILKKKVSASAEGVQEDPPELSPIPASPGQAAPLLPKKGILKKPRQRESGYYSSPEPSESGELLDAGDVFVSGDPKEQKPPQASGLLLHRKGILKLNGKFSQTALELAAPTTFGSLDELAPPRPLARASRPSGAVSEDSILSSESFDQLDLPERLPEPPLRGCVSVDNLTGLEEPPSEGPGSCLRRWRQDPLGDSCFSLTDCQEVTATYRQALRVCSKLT

[7] = target: T4, Serine/threonine-protein kinase NLK (Homo sapiens, UniProt Q9UBE8)
T4 sequence (Q9UBE8 whole entry): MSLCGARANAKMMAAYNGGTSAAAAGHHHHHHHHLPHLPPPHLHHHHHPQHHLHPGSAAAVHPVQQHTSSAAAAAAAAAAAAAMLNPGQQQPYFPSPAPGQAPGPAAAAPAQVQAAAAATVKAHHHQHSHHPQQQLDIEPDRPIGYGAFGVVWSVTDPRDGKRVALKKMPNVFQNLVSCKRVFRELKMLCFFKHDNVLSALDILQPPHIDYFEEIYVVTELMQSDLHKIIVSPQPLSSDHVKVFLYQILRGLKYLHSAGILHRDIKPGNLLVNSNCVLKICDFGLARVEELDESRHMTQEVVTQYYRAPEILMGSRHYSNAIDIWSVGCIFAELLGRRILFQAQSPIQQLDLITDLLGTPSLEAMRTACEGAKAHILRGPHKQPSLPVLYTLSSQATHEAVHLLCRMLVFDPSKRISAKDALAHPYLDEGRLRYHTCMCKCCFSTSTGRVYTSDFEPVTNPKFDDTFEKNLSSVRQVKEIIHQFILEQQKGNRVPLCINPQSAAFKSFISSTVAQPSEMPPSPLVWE

[8] = target: T5, Ras-related protein Rab-27A (Homo sapiens, UniProt P51159)
T5 sequence (P51159 whole entry): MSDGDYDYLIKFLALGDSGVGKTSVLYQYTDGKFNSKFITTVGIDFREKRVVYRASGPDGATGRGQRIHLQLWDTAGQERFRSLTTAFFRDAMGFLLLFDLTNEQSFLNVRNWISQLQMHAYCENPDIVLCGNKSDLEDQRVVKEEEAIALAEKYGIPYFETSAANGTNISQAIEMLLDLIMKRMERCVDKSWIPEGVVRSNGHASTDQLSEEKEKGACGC

[9] = target: MAP kinase-activated protein kinase 2 (Homo sapiens, UniProt P49137)
MAP kinase-activated protein kinase 2, sequence (P49137 whole entry): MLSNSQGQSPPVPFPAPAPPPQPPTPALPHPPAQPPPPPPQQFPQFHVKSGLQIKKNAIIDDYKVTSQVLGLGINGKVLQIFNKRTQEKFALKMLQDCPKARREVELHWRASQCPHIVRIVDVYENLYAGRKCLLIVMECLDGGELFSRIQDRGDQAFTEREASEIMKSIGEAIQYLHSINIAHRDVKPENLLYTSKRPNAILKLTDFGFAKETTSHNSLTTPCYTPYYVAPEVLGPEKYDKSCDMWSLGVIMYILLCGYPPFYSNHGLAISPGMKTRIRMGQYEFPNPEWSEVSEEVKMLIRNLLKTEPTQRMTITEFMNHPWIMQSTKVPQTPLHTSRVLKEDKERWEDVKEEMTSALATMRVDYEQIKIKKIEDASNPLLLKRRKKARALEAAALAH

[10] = target: BMP-2-inducible protein kinase (Homo sapiens, UniProt Q9NSY1)
BMP-2-inducible protein kinase, sequence (Q9NSY1 whole entry): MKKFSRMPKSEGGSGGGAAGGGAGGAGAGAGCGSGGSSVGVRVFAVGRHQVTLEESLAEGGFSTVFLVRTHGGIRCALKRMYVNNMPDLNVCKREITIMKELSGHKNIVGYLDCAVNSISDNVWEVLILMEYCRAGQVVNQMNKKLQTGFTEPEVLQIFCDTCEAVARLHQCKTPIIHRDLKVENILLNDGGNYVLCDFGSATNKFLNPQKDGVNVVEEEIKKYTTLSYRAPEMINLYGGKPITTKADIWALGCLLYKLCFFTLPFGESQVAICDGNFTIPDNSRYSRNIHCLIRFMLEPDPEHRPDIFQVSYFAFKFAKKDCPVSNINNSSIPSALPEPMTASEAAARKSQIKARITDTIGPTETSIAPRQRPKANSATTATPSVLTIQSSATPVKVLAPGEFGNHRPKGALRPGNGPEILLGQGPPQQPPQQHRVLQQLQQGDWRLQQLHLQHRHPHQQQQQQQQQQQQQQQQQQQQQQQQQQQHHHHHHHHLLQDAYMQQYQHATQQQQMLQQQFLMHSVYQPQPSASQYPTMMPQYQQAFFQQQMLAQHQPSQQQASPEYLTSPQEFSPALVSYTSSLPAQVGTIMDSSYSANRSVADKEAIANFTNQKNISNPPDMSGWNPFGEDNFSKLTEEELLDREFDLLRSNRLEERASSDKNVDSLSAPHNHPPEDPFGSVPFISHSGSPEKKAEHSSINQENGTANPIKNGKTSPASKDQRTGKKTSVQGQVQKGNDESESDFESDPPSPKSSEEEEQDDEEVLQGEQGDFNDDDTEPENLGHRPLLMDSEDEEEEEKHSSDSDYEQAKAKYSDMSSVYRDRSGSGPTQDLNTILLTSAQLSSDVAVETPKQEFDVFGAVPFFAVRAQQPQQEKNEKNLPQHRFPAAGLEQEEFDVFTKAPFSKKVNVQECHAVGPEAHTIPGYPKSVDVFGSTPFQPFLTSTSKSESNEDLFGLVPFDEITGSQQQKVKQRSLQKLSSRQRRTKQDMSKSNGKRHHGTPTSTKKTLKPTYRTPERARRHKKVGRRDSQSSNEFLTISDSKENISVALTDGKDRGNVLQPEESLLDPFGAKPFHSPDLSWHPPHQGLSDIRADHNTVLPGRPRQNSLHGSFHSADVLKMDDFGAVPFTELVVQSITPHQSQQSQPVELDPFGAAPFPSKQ
Further: in the data inactive means no Kd found up to 30 µM.

| Compound | Kd [1] | Kd [2] | Kd [3] | Kd [4] | Kd [5] | Kd (Adenosine kinase) | Kd [6] | Kd [7] | Kd [8] | Kd [9] | Kd [10] |
| --- | --- | --- | --- | --- | --- | --- | --- | --- | --- | --- | --- |
| CCS(=O)(=O)N1CC(CC#N)(n2cc(-c3ncnc4[nH]ccc34)cn2)C1 [BARICITINIB] | > 30 µM (inactive) | > 30 µM (inactive) | 1.07 µM (active) | > 30 µM (inactive) | 1.75 µM | > 30 µM (inactive) | > 30 µM (inactive) | > 30 µM (inactive) | > 30 µM (inactive) | > 30 µM (inactive) |  |
| CN1N=C(N)c2cn([C@@H]3O[C@H](COP(=O)(O)O)[C@@H](O)[C@H]3O)c3ncnc1c23 [TRICIRIBINE PHOSPHATE] | > 30 µM (inactive) | > 30 µM (inactive) | > 30 µM (inactive) | > 30 µM (inactive) | > 30 µM (inactive) | > 30 µM (inactive) | > 30 µM (inactive) |  | > 30 µM (inactive) | > 30 µM (inactive) | > 30 µM (inactive) |
| Nc1nc(N)c2nc(-c3cccc(O)c3)c(-c3cccc(O)c3)nc2n1 [TG100-115] | > 30 µM (inactive) |  |  |  |  | > 30 µM (inactive) |  |  | > 30 µM (inactive) |  |  |
| O=C(Nc1cccc(Cl)c1)Nc1ncc(CCNc2ncnc3ccsc23)s1 [SNS-314] | > 30 µM (inactive) | > 30 µM (inactive) |  | > 30 µM (inactive) |  | > 30 µM (inactive) | > 30 µM (inactive) |  | > 30 µM (inactive) |  | > 30 µM (inactive) |
| C[C@@H](c1ccc2nccn2c1)n1nnc2ncc(-c3cnn(C)c3)nc21 [SAVOLITINIB] | > 30 µM (inactive) | > 30 µM (inactive) | > 30 µM (inactive) | > 30 µM (inactive) | > 30 µM (inactive) | > 30 µM (inactive) | > 30 µM (inactive) | > 30 µM (inactive) | > 30 µM (inactive) |  | > 30 µM (inactive) |
| CN1CCN(c2ccc3nc(-c4c(N)c5c(F)cccc5[nH]c4=O)[nH]c3c2)CC1 [DOVITINIB] | > 30 µM (inactive) |  |  |  |  | > 30 µM (inactive) |  |  | > 30 µM (inactive) |  |  |
| COCCNCc1ccc(-c2cc3nccc(Oc4ccc(NC(=S)NC(=O)Cc5ccc(F)cc5)cc4F)c3s2)nc1 [GLESATINIB] | > 30 µM (inactive) |  | > 30 µM (inactive) | > 30 µM (inactive) | > 30 µM (inactive) | > 30 µM (inactive) | > 30 µM (inactive) | > 30 µM (inactive) | > 30 µM (inactive) | > 30 µM (inactive) | > 30 µM (inactive) |
| Cn1ncc(Cl)c1-c1cc(C(=O)N[C@H](CN)Cc2cccc(F)c2)sc1Cl [AFURESERTIB] | > 30 µM (inactive) | > 30 µM (inactive) | > 30 µM (inactive) | > 30 µM (inactive) | > 30 µM (inactive) |  | > 30 µM (inactive) | > 30 µM (inactive) |  | > 30 µM (inactive) | > 30 µM (inactive) |
| O=C(c1ccc(F)c(F)c1Nc1ccc(I)cc1F)N1CC(O)([C@@H]2CCCCN2)C1 [COBIMETINIB] | > 30 µM (inactive) | > 30 µM (inactive) | > 30 µM (inactive) | > 30 µM (inactive) | > 30 µM (inactive) |  |  | > 30 µM (inactive) | > 30 µM (inactive) | > 30 µM (inactive) | > 30 µM (inactive) |
| Cc1cn(-c2cc(NC(=O)c3ccc(C)c(Nc4nccc(-c5cccnc5)n4)c3)cc(C(F)(F)F)c2)cn1 [NILOTINIB] | > 30 µM (inactive) |  |  |  |  | > 30 µM (inactive) |  |  | > 30 µM (inactive) |  |  |
| CNC(=O)c1ccc(C)c(-n2c(C)cc(OCc3ccc(F)cc3F)c(Br)c2=O)c1 [PH-797804] | > 30 µM (inactive) | > 30 µM (inactive) | > 30 µM (inactive) | > 30 µM (inactive) | > 30 µM (inactive) | > 30 µM (inactive) | > 30 µM (inactive) | > 30 µM (inactive) |  |  | > 30 µM (inactive) |
| COC(=O)[C@@]1(O)C[C@H]2O[C@]1(C)n1c3ccccc3c3c4c(c5c6ccccc6n2c5c31)C(=O)NC4 [K-252A] | > 30 µM (inactive) | > 30 µM (inactive) |  | > 30 µM (inactive) | > 30 µM (inactive) | > 30 µM (inactive) | > 30 µM (inactive) | > 30 µM (inactive) | > 30 µM (inactive) | > 30 µM (inactive) | 0.09 µM (active) |
| Cc1ccc(NC(=O)c2ccc(CN3CC[C@H](N(C)C)C3)c(C(F)(F)F)c2)cc1Nc1nccc(-c2cncnc2)n1 [BAFETINIB] | > 30 µM (inactive) |  | > 30 µM (inactive) | > 30 µM (inactive) | > 30 µM (inactive) | > 30 µM (inactive) | > 30 µM (inactive) | > 30 µM (inactive) | > 30 µM (inactive) | 0.304 µM (active) | > 30 µM (inactive) |

More lines, now with the values ahead:

| Kd [1] | Kd [2] | Kd [3] | Kd [4] | Kd [5] | Kd (Adenosine kinase) | Kd [6] | Kd [7] | Kd [8] | Kd [9] | Kd [10] | Compound |
| --- | --- | --- | --- | --- | --- | --- | --- | --- | --- | --- | --- |
| > 30 µM (inactive) |  |  | > 30 µM (inactive) |  | > 30 µM (inactive) |  | > 30 µM (inactive) | > 30 µM (inactive) |  | 1.49 µM (active) | Cc1cc(Nc2cc(N3CCN(C)CC3)nc(/C=C/c3ccccc3)n2)n[nH]1 [ENMD-2076] |
| > 30 µM (inactive) | > 30 µM (inactive) | > 30 µM (inactive) | > 30 µM (inactive) | 17.5 µM (active) |  | > 30 µM (inactive) |  | > 30 µM (inactive) | > 30 µM (inactive) | 0.402 µM (active) | O=C1NC(=O)/C(=C/c2ccc3nccc(-c4ccncc4)c3c2)S1 [GSK-1059615] |
| > 30 µM (inactive) |  |  |  |  | > 30 µM (inactive) |  |  | > 30 µM (inactive) |  |  | CCn1c(-c2nonc2N)nc2c(C#CC(C)(C)O)ncc(OC[C@H]3CCCNC3)c21 [GSK-690693] |
| > 30 µM (inactive) | > 30 µM (inactive) |  |  |  | > 30 µM (inactive) | 0.007 µM |  | > 30 µM (inactive) |  | 0.007 µM (active) | Cc1nc(N)sc1-c1ccnc(Nc2ccc(N3CCOCC3)cc2)n1 [CYC-116] |
